Reference: PubChem BioAssay (NCI)
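Cells were grown in 96-well plates and exposed to each compound for 48 hours at five concentrations; endpoints were interpolated linearly between bracketing concentrations, or set to the highest concentration if not reached. GI50 marks 50% less growth. TGI marks complete inhibition of growth.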

Columns and labels:
Assay in all cases: NCI anticancer screen, dose series, 48 h
RPMI-8226 leukemia = test system: RPMI-8226 leukemia
HOP-92 NSCLC = test system: HOP-92 NSCLC
NCI-H23 lung = test system: NCI-H23 lung
SN12C renal = test system: SN12C renal
SW-620 colon = test system: SW-620 colon
MCF7 breast = test system: MCF7 breast
HS 578T breast = test system: HS 578T breast
SNB-19 CNS = test system: SNB-19 CNS
SK-MEL-28 melanoma = test system: SK-MEL-28 melanoma
UO-31 renal = test system: UO-31 renal
SF-268 CNS = test system: SF-268 CNS
U251 CNS = test system: U251 CNS
SK-MEL-5 melanoma = test system: SK-MEL-5 melanoma
HCC-2998 colon = test system: HCC-2998 colon
OVCAR-3 ovarian = test system: OVCAR-3 ovarian
OVCAR-5 ovarian = test system: OVCAR-5 ovarian
BT-549 breast = test system: BT-549 breast
CCRF-CEM leukemia = test system: CCRF-CEM leukemia
A498 renal = test system: A498 renal
IGROV1 ovarian = test system: IGROV1 ovarian
SR leukemia = test system: SR leukemia
MALME-3M melanoma = test system: MALME-3M melanoma
OVCAR-4 ovarian = test system: OVCAR-4 ovarian
NCI-H460 lung = test system: NCI-H460 lung
SNB-75 CNS = test system: SNB-75 CNS
PC-3 prostate = test system: PC-3 prostate
TK-10 renal = test system: TK-10 renal

C[C@]12CC[C@@H]3c4ccc(O)cc4CC[C@H]3[C@@H]1CC[C@@H]2NS(=O)(=O)c1ccc(Cl)cc1
GI50 (RPMI-8226 leukemia): 3.92 µM
TGI (RPMI-8226 leukemia): 23.5 µM
GI50 (HOP-92 NSCLC): 2.68 µM
TGI (HOP-92 NSCLC): 10.7 µM
GI50 (NCI-H23 lung): 5.67 µM
TGI (NCI-H23 lung): 23.1 µM
GI50 (SN12C renal): 3.02 µM
TGI (SN12C renal): 12.3 µM
GI50 (SW-620 colon): 3.95 µM
TGI (SW-620 colon): 15.9 µM
GI50 (MCF7 breast): 1.91 µM
TGI (MCF7 breast): 4.86 µM
GI50 (HS 578T breast): 2.58 µM
TGI (HS 578T breast): 14.5 µM
GI50 (SNB-19 CNS): 11 µM
TGI (SNB-19 CNS): 24 µM
GI50 (SK-MEL-28 melanoma): 7.45 µM
TGI (SK-MEL-28 melanoma): 22.3 µM
GI50 (UO-31 renal): 2.59 µM
TGI (UO-31 renal): 11.9 µM
GI50 (SF-268 CNS): 5.69 µM
TGI (SF-268 CNS): 19.9 µM
GI50 (U251 CNS): 5.49 µM
TGI (U251 CNS): 18.5 µM
GI50 (SK-MEL-5 melanoma): 2.4 µM
TGI (SK-MEL-5 melanoma): 6.71 µM
GI50 (HCC-2998 colon): 7.49 µM
TGI (HCC-2998 colon): 23.8 µM
GI50 (OVCAR-3 ovarian): 3.75 µM
TGI (OVCAR-3 ovarian): 12.8 µM
GI50 (OVCAR-5 ovarian): 6.02 µM
TGI (OVCAR-5 ovarian): 20.5 µM
GI50 (BT-549 breast): 5.65 µM
TGI (BT-549 breast): 22.3 µM
GI50 (CCRF-CEM leukemia): 3.5 µM
TGI (CCRF-CEM leukemia): 37.6 µM
GI50 (A498 renal): 2.52 µM
TGI (A498 renal): 9.36 µM
GI50 (IGROV1 ovarian): 5.74 µM
TGI (IGROV1 ovarian): 18.4 µM
GI50 (SR leukemia): 4.47 µM
TGI (SR leukemia): 50.8 µM
GI50 (MALME-3M melanoma): 3.25 µM
TGI (MALME-3M melanoma): 10.7 µM
GI50 (OVCAR-4 ovarian): 1.99 µM
TGI (OVCAR-4 ovarian): 8.65 µM
GI50 (NCI-H460 lung): 2.6 µM
TGI (NCI-H460 lung): 6.66 µM
GI50 (SNB-75 CNS): 2.07 µM
TGI (SNB-75 CNS): 9.17 µM
GI50 (PC-3 prostate): 2.86 µM
TGI (PC-3 prostate): 13.5 µM
GI50 (TK-10 renal): 5.46 µM
TGI (TK-10 renal): 17.6 µM
